From patent US4550170A, “6-Phenyl-2,3,5,6-tetrahydroimidazo-[2,1-b]-thiazole derivatives” (Institut Organicheskoi Khimii Akademii Nauk Ukrainskoi SSR, priority 1984, dated 1985)
Like-named read-outs stand apart in the source and are kept apart here.

Key:
[1] = system: virus of vesicular stomatitis; type: cell-based
[2] = physical properties of the compounds; type: physicochemical
[3] = system: human tonsillocytes; assay: antibody-dependent cytotoxicity of human tonsillocytes, 51Cr release; type: cell-based
Source text: On this basis, the effect of one of the lest toxic compound (III) out of those of the present invention was studied for the antibody-dependent cytolytic activity of cells. […] The cytolytic effect of tonsillocytes was studied by the radioisotope method using Cr^51. On doing so, the deterioration of target cells (chicken's erythrocytes) by tonsil lymphocytes was regarded as spontaneous cytolysis, while the destruction of the target cells loaded, in addition to the isotopic tracer, with homologous antibodies in the sublytic dose was considered as antibody-dependent cytolysis. […] Afterwards they were twice washed by means of Medium 199 using centrifugation (105 g, 10 minutes). […] The degree of destruction of the target cells was determined radiometrically by the outcome of Cr^51 into the liquid phase.

[4] = system: allergic reaction of the delayed type in mice; assay: delayed-type (contact) hypersensitivity reaction to dinitrochlorobenzene, ear thickness in mice; type: in vivo, CBA mice; settings: for Ear thickness, Control, Average value / Ear thickness, Control, Range of fluctuations: control (right) ear; for Ear thickness, Experiment, Average value / Ear thickness, Experiment, Range of fluctuations: test (left) ear; for dose sufficient for inhibition of the contact hypersensitivity, lower than that of levamizole: ratio to levamizole
[5] = system: human tonsillocytes; assay: natural cytotoxicity (natural killers) of human tonsillocytes, 51Cr release; type: cell-based; settings: for Yield of 51Cr from target cells, natural cytotoxicity, average value: (III) significant P below 0.05
Source text: The cytolytic effect of tonsillocytes was studied by the radioisotope method using Cr^51. On doing so, the deterioration of target cells (chicken's erythrocytes) by tonsil lymphocytes was regarded as spontaneous cytolysis, while the destruction of the target cells loaded, in addition to the isotopic tracer, with homologous antibodies in the sublytic dose was considered as antibody-dependent cytolysis. […] Afterwards they were twice washed by means of Medium 199 using centrifugation (105 g, 10 minutes). […] The degree of destruction of the target cells was determined radiometrically by the outcome of Cr^51 into the liquid phase.

[6] = in vivo; settings: mouse, sc
[7] = in vivo; settings: rabbit
[8] = in vivo; settings: rat, rats
[9] = system: IgE antibodies in respiratory organs
Procedure: The local production of IgE-antibodies in trachea and lungs of rats of the lines WAY, August with a mass of 250-300 g was induced by means of a successive (with the interval of 40 minutes) dropping a 0.1% solution of histamine and ambrosia allergen (10,000 PNU/ml) into both nasal passages. […] One day after the administration of the allergen IgE-antibodies were determined in homogenates of trachea and lungs prepared at the rate of 0.1 ml of a physiological solution per 10 mg of the tissue by the method of indirect degranulation of obese cells.

[10] = system: Staphylococcus aureus, Proteum, Bacillus pyocyanes; assay: antibacterial activity in vitro, serial dilutions; type: cell-based; settings: relative to compound (II)
Procedure: In the experiments in vitro the antibacterial activity of the compounds of the present invention was studied. To this end, serial dilutions of compounds (II) and (III) with a concentration of from 1% to 0.00001% were prepared and 0.1 ml of a microbal suspension was added thereto (Staphylococcus aureus, Proteum, Bacillus pyocyanes). The microbal load for staphylococcus was about 1×10^5 cells/ml, for Proteum and Bacillus pyocyanes -1×10^4 c cells/ml. […] The bacteria were incubated along with the compounds according to the present invention at the temperature of 37° C. […] Inoculations were effected by spreading 0.1 ml of a suspension of bacteria in a corresponding dilution of the compounds over the surface of an agar dish using a glass spatula.

[11] = system: delayed-type hypersensitivity reaction; assay: delayed-type hypersensitivity reaction to rat's thymocytes in mice (popliteal lymph nodes); type: in vivo
[12] = system: delayed-type hypersensitivity reaction; assay: delayed-type hypersensitivity reaction to 2,4-dinitrochlorobenzene in guinea pigs; type: in vivo
[13] = 100 μg/ml, certainty: (II), (III) below 0.05, (I), levamizole above 0.05
[14] = 500 μg/ml, certainty: all below 0.05
[15] = 100 μg/ml, negative = test value exceeded the control

NC(=O)C[N+]1=C2SCCN2CC1c1ccccc1 (stereo not drawn) [Compound (III), 2,3,5,6-tetrahydro-6-phenyl-7-carbamoylmethylimidazo-[2,1-b]-thiazolium bromide]
Degree of inhibition of the virus reproduction ([1]; 1 μg/ml): 10 times | Degree of inhibition of the virus reproduction ([1]; 10 μg/ml): 100 times | solubility in acetone [2]: only slightly soluble | solubility in benzene [2]: only slightly soluble | solubility in lower alcohols [2]: well soluble | solubility in water [2]: well soluble | Yield of 51Cr from target cells, antibody dependent cytotoxicity, range of fluctuations ([3]; 1 μg/ml): 10.0-57.0% | Yield of 51Cr from target cells, antibody dependent cytotoxicity, average ([3]; 1 μg/ml, (III) significant P below 0.05): 23.2% | Yield of 51Cr from target cells, antibody dependent cytotoxicity, range of fluctuations ([3]; 10 μg/ml): 13.0-36.0% | Yield of 51Cr from target cells, antibody dependent cytotoxicity, average ([3]; 10 μg/ml, (III) significant P below 0.05): 22.6% | Yield of 51Cr from target cells, antibody dependent cytotoxicity, range of fluctuations ([3]; 100 μg/ml): 4.0-40.0% | Yield of 51Cr from target cells, antibody dependent cytotoxicity, average ([3]; 100 μg/ml, levamizole significant P below 0.05): 19.1% | minimal effective concentration ([3]; Homo sapiens, read-out: concentration stimulating the antibody-dependent cytolytic activity): 1 to 10 µg/mL | stimulating concentration lower as compared to levamizole, antibody-dependent cytolytic activity ([3]; ratio to levamizole): 10-100 times | Ear thickness, Control, Average value ([4]; 2.5 mg/kg per os): 176.7 μm | Ear thickness, Control, Range of fluctuations ([4]; 2.5 mg/kg per os): 110-210 μm | Ear thickness, Experiment, Average value ([4]; 2.5 mg/kg per os): 184.4 μm | Ear thickness, Experiment, Range of fluctuations ([4]; 2.5 mg/kg per os): 110-220 μm | Ear thickness, Control, Average value ([4]; 25 mg/kg per os): 184.4 μm | Ear thickness, Control, Range of fluctuations ([4]; 25 mg/kg per os): 170-200 μm | Ear thickness, Experiment, Average value ([4]; 25 mg/kg per os): 190.0 μm | Ear thickness, Experiment, Range of fluctuations ([4]; 25 mg/kg per os): 170-200 μm | dose sufficient for inhibition of the contact hypersensitivity, lower than that of levamizole [4]: 10 times | Yield of 51Cr from target cells, natural cytotoxicity, range of fluctuations ([5]; 1 μg/ml): 7.0-60.0% | Yield of 51Cr from target cells, natural cytotoxicity, average value ([5]; 1 μg/ml): 30.6% | Yield of 51Cr from target cells, natural cytotoxicity, range of fluctuations ([5]; 10 μg/ml): 7.0-42.0% | Yield of 51Cr from target cells, natural cytotoxicity, average value ([5]; 10 μg/ml): 28.8% | Yield of 51Cr from target cells, natural cytotoxicity, range of fluctuations ([5]; 100 μg/ml): 1.0-40.0% | Yield of 51Cr from target cells, natural cytotoxicity, average value ([5]; 100 μg/ml): 24.8% | LD50 [6]: 1020 mg/kg | LD50 ([7]; po): 3330 mg/kg | LD50 ([7]; sc): 317 mg/kg | LD50 ([8]; po, LD50 upon peroral administration, female): 3500 mg/kg | LD50 ([8]; po, LD50 upon peroral administration, male): 5750 mg/kg | LD50 ([8]; sc, LD50 upon subcutaneous injection, female): 1420 mg/kg | LD50 ([8]; sc, LD50 upon subcutaneous injection, male): 2580 mg/kg | Percent of degranulated mastocytes, Lungs [9, 13]: 10.6 ± 3.9% | Percent of degranulated mastocytes, Trachea [9, 13]: 9.1 ± 2.1% | Percent of degranulated mastocytes, Lungs [9, 14]: 6.1 ± 1.1% | Percent of degranulated mastocytes, Trachea [9, 14]: 7.1 ± 1.7% | antibacterial activity lower by a factor of [10]: 2

COC(=O)C[N+]1=C2SCCN2CC1c1ccccc1 (stereo not drawn) [Compound (I), 2,3,5,6-tetrahydro-6-phenyl-7-methoxycarbonylmethylimidazo-[2,1-b]-thiazolium bromide]
solubility in acetone [2]: sparingly soluble | solubility in benzene [2]: sparingly soluble | solubility in lower alcohols [2]: soluble | solubility in water [2]: soluble | Difference in masses of popliteal lymph nodes in the control and test limb, Average value [11, 15]: -1.1 ± 0.08 mg | Difference in masses of popliteal lymph nodes in the control and test limb, Average value ([11]; 500 μg/ml): +1.3 ± 0.2 mg | Difference in temperature of the pad surfaces, Average value [12, 15]: -1.5 ± 0.27 °C | Difference in thickness of control and test talipes, Average value [12, 15]: -0.6 ± 0.062 mm | LD50 [6]: 262 mg/kg | Percent of degranulated mastocytes, Lungs [9, 13]: 19.4 ± 1.8% | Percent of degranulated mastocytes, Trachea [9, 13]: 17.8 ± 1.3% | Percent of degranulated mastocytes, Lungs [9, 14]: 9.3 ± 0.8% | Percent of degranulated mastocytes, Trachea [9, 14]: 7.0 ± 0.2%

CCCCCCCCCCOC(=O)C[N+]1=C2SCCN2CC1c1ccccc1 (stereo not drawn) [Compound (II), 2,3,5,6-tetrahydro-6-phenyl-7-decyloxycarbonylmethylimidazo-[2,1-b]-thiazolium bromide]
Degree of inhibition of the virus reproduction ([1]; 1 μg/ml): 10 times | Degree of inhibition of the virus reproduction ([1]; 10 μg/ml): 100 times | solubility in lower alcohols [2]: soluble | solubility in water [2]: soluble | Difference in masses of popliteal lymph nodes in the control and test limb, Average value ([11]; 1,000 μg/ml): +1.3 ± 0.29 mg | Ear thickness, Control, Average value ([4]; 2.5 mg/kg per os): 202.2 μm | Ear thickness, Control, Range of fluctuations ([4]; 2.5 mg/kg per os): 150-250 μm | Ear thickness, Experiment, Average value ([4]; 2.5 mg/kg per os): 222.8 μm | Ear thickness, Experiment, Range of fluctuations ([4]; 2.5 mg/kg per os): 175-300 μm | Ear thickness, Control, Average value ([4]; 25 mg/kg per os): 178.9 μm | Ear thickness, Control, Range of fluctuations ([4]; 25 mg/kg per os): 150-240 μm | Ear thickness, Experiment, Average value ([4]; 25 mg/kg per os): 184.4 μm | Ear thickness, Experiment, Range of fluctuations ([4]; 25 mg/kg per os): 170-240 μm | dose sufficient for inhibition of the contact hypersensitivity, lower than that of levamizole [4]: 10 times | Difference in temperature of the pad surfaces, Average value ([12]; 1,000 μg/ml): +1.2 ± 0.16 °C | Difference in thickness of control and test talipes, Average value ([12]; 1,000 μg/ml): +0.63 ± 0.09 mm | LD50 [6]: 167 mg/kg | Percent of degranulated mastocytes, Lungs [9, 13]: 6.8 ± 0.9% | Percent of degranulated mastocytes, Trachea [9, 13]: 15.0 ± 1.8% | Percent of degranulated mastocytes, Lungs [9, 14]: 6.5 ± 0.9% | Percent of degranulated mastocytes, Trachea [9, 14]: 3.5 ± 1.2%
